Test results as given in patent US20230131903A1, “PESTICIDALLY ACTIVE FUSED BICYCLIC HETEROAROMATIC COMPOUNDS” (SYNGENTA CROP PROTECTION AG, priority 2020, published 2023).

Columns and labels:
Format in all cases: in vivo
[1] = test system: Plutella xylostella (Diamond Back Moth); assay: Example B4: Plutella xylostella (diamond back moth), artificial diet, eggs; conditions: 192 h, application rate of 200 ppm, 8 days after infestation, in comparison to untreated samples, read-out: control in at least one of the two categories (mortality or growth inhibition)
Protocol: Example B4: Plutella xylostella (Diamond Back Moth)
24-well microtiter plates with artificial diet were treated with aqueous test solutions prepared from 10′000 ppm DMSO stock solutions by pipetting. After drying, Plutella eggs were pipetted through a plastic stencil onto a gel blotting paper and the plate was closed with it. The samples were assessed for mortality and growth inhibition in comparison to untreated samples 8 days after infestation.
(§1) The following compounds gave an effect of at least 80% control in at least one of the two categories (mortality or growth inhibition) at an application rate of 200 ppm

[2] = test system: Euschistus heros (Neotropical Brown Stink Bug); assay: Example B2: Euschistus heros (neotropical brown stink bug), soybean leaves sprayed, N2 nymphs; conditions: 120 h, application rate of 200 ppm, 5 days after infestation, in comparison to untreated samples, read-out: control in at least one of the two categories (mortality or growth inhibition)
Protocol: Example B2: Euschistus heros (Neotropical Brown Stink Bug)
Soybean leaves on agar in 24-well microtiter plates were sprayed with aqueous test solutions prepared from 10′000 ppm DMSO stock solutions. After drying the leaves were infested with N2 nymphs. The samples were assessed for mortality and growth inhibition in comparison to untreated samples 5 days after infestation.
as §1

[3] = test system: Diabrotica Balteata (Corn Root Worm); assay: Example B1: Diabrotica balteata (corn root worm), maize sprouts sprayed, L2 larvae; conditions: 96 h, application rate of 200 ppm, 4 days after infestation, in comparison to untreated samples, read-out: control in at least one of the two categories (mortality or growth inhibition)
Protocol: Example B1: Diabrotica Balteata (Corn Root Worm)
Maize sprouts placed onto an agar layer in 24-well microtiter plates were treated with aqueous test solutions prepared from 10′000 ppm DMSO stock solutions by spraying. After drying, the plates were infested with L2 larvae (6 to 10 per well). The samples were assessed for mortality and growth inhibition in comparison to untreated samples 4 days after infestation.
as §1

[4] = test system: Chilo suppressalis (Striped Rice Stemborer); assay: Example B3: Chilo suppressalis (striped rice stemborer), artificial diet, L2 larvae; conditions: 144 h, application rate of 200 ppm, 6 days after infestation, in comparison to untreated samples, read-out: control in at least one of the three categories (mortality, anti-feedant effect, or growth inhibition)
Protocol: Example B3: Chilo suppressalis (Striped Rice Stemborer)
24-well microtiter plates with artificial diet were treated with aqueous test solutions prepared from 10′000 ppm DMSO stock solutions by pipetting. After drying, the plates were infested with L2 larvae (6-8 per well). The samples were assessed for mortality, anti-feeding effect, and growth inhibition in comparison to untreated samples 6 days after infestation. Control of Chilo suppressalis by a test sample is given when at least one of the categories mortality, anti-feedant effect, and growth inhibition is higher than the untreated sample.

[5] = test system: Spodoptera littoralis (Egyptian Cotton Leaf Worm); assay: Example B5: Spodoptera littoralis (Egyptian cotton leaf worm), cotton leaf discs sprayed, L1 larvae; conditions: foliar, 72 h, application rate of 200 ppm, 3 days after infestation, in comparison to untreated samples, read-out: control in at least one of the three categories (mortality, anti-feedant effect, or growth inhibition)
Protocol: Example B5: Spodoptera littoralis (Egyptian Cotton Leaf Worm)
Cotton leaf discs were placed onto agar in 24-well microtiter plates and sprayed with aqueous test solutions prepared from 10′000 ppm DMSO stock solutions. After drying the leaf discs were infested with five L1 larvae. The samples were assessed for mortality, anti-feeding effect, and growth inhibition in comparison to untreated samples 3 days after infestation. Control of Spodoptera littoralis by a test sample is given when at least one of the categories mortality, anti-feedant effect, and growth inhibition is higher than the untreated sample.

Compound | percent control (mortality or growth inhibition) at 200 ppm [1] | percent control (mortality or growth inhibition) at 200 ppm [2] | percent control (mortality or growth inhibition) at 200 ppm [3] | percent control (mortality, anti-feedant effect or growth inhibition) at 200 ppm [4] | percent control (mortality, anti-feedant effect or growth inhibition) at 200 ppm [5]
CC(c1ncnn1-c1ncccn1)N(CC1CC1)c1nc(=O)[nH]c2c(Cl)cc(C(F)(F)F)cc12 (stereo not shown) [P1, 8-chloro-4-[cyclopropylmethyl-[1-(2-pyrimidin-2-yl-1,2,4-triazol-3-yl)ethyl]amino]-6-(trifluoromethyl)-1H-quinazolin-2-one] | ≥ 80% | ≥ 80% | ≥ 80% | – | –
CC(Nc1nc(=O)[nH]c2c(Br)cc(C(F)(F)F)cc12)c1ncnn1-c1ncccn1 (stereo not shown) [P2] | ≥ 80% | ≥ 80% | ≥ 80% | ≥ 80% | –
CC(c1ncnn1-c1ncccn1)N(CC1CC1)c1nc(=O)[nH]c2c(Br)cc(C(F)(F)F)cc12 (stereo not shown) [P3, 8-bromo-4-[cyclopropylmethyl-[1-(2-pyrimidin-2-yl-1,2,4-triazol-3-yl)ethyl]amino]-6-(trifluoromethyl)-1H-quinazolin-2-one] | ≥ 80% | ≥ 80% | ≥ 80% | – | –
CC(Nc1nc(=O)[nH]c2c(Cl)cc(C(F)(F)F)cc12)c1ncnn1-c1ncccn1 (stereo not shown) [P4, 8-chloro-4-[1-(2-pyrimidin-2-yl-1,2,4-triazol-3-yl)ethylamino]-6-(trifluoromethyl)-1H-quinazolin-2-one] | ≥ 80% | ≥ 80% | – | ≥ 80% | ≥ 80%
CC(Nc1nc(=O)n(C)c2c(C(F)(F)F)cc(Br)cc12)c1ncnn1-c1ncccn1 (stereo not shown) [P5, 6-bromo-1-methyl-4-[1-(2-pyrimidin-2-yl-1,2,4-triazol-3-yl)ethylamino]-8-(trifluoromethyl)quinazolin-2-one] | ≥ 80% | ≥ 80% | ≥ 80% | ≥ 80% | ≥ 80%
CC(c1ncnn1-c1ncccn1)N(C)c1nc(=O)n(C)c2c(C(F)(F)F)cc(Br)cc12 (stereo not shown) [P6, 6-bromo-1-methyl-4-[methyl-[1-(2-pyrimidin-2-yl-1,2,4-triazol-3-yl)ethyl]amino]-8-E (trifluoromethyl)quinazolin-2-one] | – | ≥ 80% | ≥ 80% | – | –
CC(Nc1nc(=O)n(C)c2c(Cl)cc(C(F)(F)F)cc12)c1ncnn1-c1ncccn1 (stereo not shown) [P7, 8-chloro-1-methyl-4-[1-(2-pyrimidin-2-yl-1,2,4-triazol-3-yl)ethylamino]-6-(trifluoromethyl) quinazolin-2-one] | ≥ 80% | ≥ 80% | – | ≥ 80% | –
CC(Nc1cc(=O)[nH]c2c(Cl)cc(C(F)(F)F)cc12)c1nccnc1-c1ncccn1 (stereo not shown) [P8, 8-chloro-4-[1-(3-pyrimidin-2-ylpyrazin-2-yl)ethylamino]-6-(trifluoromethyl)-1H-quinolin-2-one] | ≥ 80% | – | ≥ 80% | – | –
CC(c1ncnn1-c1ncccn1)N(C)c1nc(=O)n(C)c2c(Cl)cc(C(F)(F)F)cc12 (stereo not shown) [P10, 8-chloro-1-methyl-4-[methyl-[1-(2-pyrimidin-2-yl-1,2,4-triazol-3-yl)ethyl]amino]-6-(trifluoromethyl) quinazolin-2-one] | – | ≥ 80% | – | – | –
CC(c1ncnn1-c1ncccn1)N(C)c1nc(=O)n(CC(F)(F)F)c2ccc(C(F)(F)F)cc12 (stereo not shown) [P12, 4-[methyl-[1-(2-pyrimidin-2-yl-1,2,4-triazol-3-yl)ethyl]amino]-1-(2,2,2-trifluoroethyl)-6-(trifluoromethyl) quinazolin-2-one] | – | ≥ 80% | – | – | –
